Reference: paper PMC9486805, “Identification of a Phage Display-Derived Peptide Interacting with the N-Terminal Region of Factor VII Activating Protease (FSAP) Enables Characterization of Zymogen Activation” (ACS Chemical Biology, 2022)

Columns and labels:
plasma proteins = experiment: Binding of biotinylated NNKC9/41 to immobilized plasma proteins; conditions: Fig 2B, as summarised
Experimental: Figure 2 NNKC9/41 interacts with the NTR of pro-FSAP: (A) To determine peptide binding to pro-FSAP, wells were coated with 2 μg/mL pro-FSAP and biotinylated NNKC9/41 and NNK11/189 and their respective scrambled controls were added in different concentration (0–5 μM). Peroxidase-labeled streptavidin was used to detect peptide binding. (B) Same procedure as in (A) except that different proteins were immobilized and biotinylated NNKC9/41 (0–30 μM) was added and its binding was measured. (C) Schematic structure of pro-FSAP with the heavy chain consisting of an NTR, three EGF domains, and a kringle domain, followed by the light chain harboring the serine protease domain (SPD). The binding domains of antibodies used in this study are indicated. (D) Recombinant complete heavy chain (heavy) and truncated heavy chain variants ΔNTR, ΔEGF1, ΔEGF2, ΔEGF3, and ΔKringle were expressed in bacteria and analyzed by sodium dodecyl sulfate poly(acrylamide) gel electrophoresis (SDS-PAGE) followed by Coomassie staining. […] Biotinylated NNKC9/41 or the scrambled control peptide was added at 1 μM and peptide binding was measured with peroxidase-linked streptavidin. […]
Wells were coated with anti-FSAP polyclonal antibodies (5 μg/mL). […] Subsequently, the plates were washed, and bound peptides were detected with peroxidase-coupled streptavidin. […]

factor XII = experiment: Specificity towards pro-enzymes: factor XII; format: biochemical; conditions: Factor XII 100 nM; peptide 0-50 μM; CS31 (Fig S7)
Experimental: (§1) Fig S7. Specificity of NNKC9/41 towards other pro-enzymes: Zymogens and their respective active enzymes were incubated with NNKC9/41 or Ser-Ser linear peptide (0-50 μM) and the enzyme activity was monitored using respective chromogenic substrates. Activity of Factor XII(100 nM) and Factor XIIa (20 nM) was measured with the substrate CS31 (1000 µM). Pro-thrombin (100 nM) and thrombin (20 nM) […]
(§2) Bend, IN, USA) except plasminogen and FSAP, which were isolated in house; and pro-uPA was from Grünenthal (Stolberg, Germany). All chromogenic substrates were from Hyphen Biomed (Neuville Sur Oise, France). Experiments were carried out in TBS with Tween-20 (0.1 % wt/ vol) BSA (0.3% wt/vol) and CaCl2 (2 mM). Absorbance at 405 nm was measured over time and the enzyme activity is depicted was measured in duplicates (mean + or -range) and similar results were obtained in 3

Factor XIIa = experiment: Specificity: factor XIIa; format: biochemical; conditions: Factor XIIa 20 nM; peptide 0-50 μM; CS31 (Fig S7)
Experimental: as §1, §2

thrombin = experiment: Specificity: thrombin; format: biochemical; conditions: thrombin 20 nM; peptide 0-50 μM; CS01 (Fig S7)
Experimental: Fig S7. […]
Pro-thrombin (100 nM) and thrombin (20 nM) […]
as §2

[1] = Substrate turnover in FSAP-depleted plasma; format: biochemical, human; conditions: FSAP-depleted citrate plasma 1:12; 25 μM (Fig 6A)
Experimental: Figure 6 Pro-FSAP activation and clotting in plasma by NNKC9/41: (A) citrate plasma (1:12 dilution) from donors with WT/WT, WT/MI, and MI/MI genotypes and WT-FSAP-deficient plasma (FSAP-DP) were compared. Substrate turnover was monitored after addition of NNKC9/41 or the Ser–Ser linear peptide (25 μM each). Results are shown as mean + range of duplicate wells. (B) Pooled prothrombin-deficient citrated plasma (1:5 dilution) was recalcified with 10 mM CaCl2 and incubated with NNKC9/41 or scrambled control peptide (0–25 μM each) for 60 min at 37 °C in the presence or absence of the FSAP-inhibitory MA-FSAP-38C7 (5 μg/mL). Initiation of clotting was achieved by adding the tissue factor/phospholipid and prothrombin complex concentrate. Clotting time was measured as diluted prothrombin time (dPT) in seconds. Data are the mean of three independent experiments. The relative dPT in % of the untreated control is presented as mean ± standard error (SE) (*p <0.05, two-way analysis of variance (ANOVA) and Bonferroni post-test).
Human citrate plasma (0.38% w/v) or hirudin plasma (25 μg/mL Lepirudin) was obtained from five healthy donors. […] Hydrolysis of the fluorogenic substrates was measured using a Synergy HI plate reader with excitation at 320 nm and emission at 460 nm at 37 °C for 60 min. The maximal velocity was calculated from the linear part of the progress curve. […]

CRGAMWMYKRC [NNKC9/41]
binding to other plasma proteins (plasma proteins): did not bind to any other plasma proteins tested, except FSAP | effect on activity (factor XII): did not influence the activity | effect on activity (Factor XIIa): did not influence the activity | effect on activity (thrombin): did not influence the activity | substrate turnover [1]: no turnover of the substrate
